Converted amounts (≈) assume the structure as drawn. “And” between values parts separate entries of the source, which are not always exact repeats. Identical values can stand only once. Blank lines part the entries; values can stand above or below the compound they belong to.
Experiments:
Assay in all cases: ≥ marks a high value that may be exact or a test limit, other limits are often not marked, values filed in µg/mL are converted to µM
Escherichia coli E423-17 = test system: Escherichia coli E423-17
[1] = test system: Pseudomonas aeruginosa ATCC 19660
[2] = test system: Pseudomonas aeruginosa PAO1
Pseudomonas aeruginosa = test system: Pseudomonas aeruginosa
[3] = test system: Staphylococcus aureus USA 300 LAC
[4] = test system: Acinetobacter baumannii ATCC 19606
[5] = test system: Bordetella bronchiseptica CUN 11844-99
[6] = test system: Escherichia coli ATCC 25922
[7] = test system: Pseudomonas aeruginosa ATCC 27853
[8] = test system: Pseudomonas aeruginosa CUN 4158-02
[9] = test system: Staphylococcus aureus ATCC 25923
[10] = test system: Staphylococcus aureus ATCC 43300
[11] = test system: Staphylococcus aureus CUN 3792-99
[12] = test system: Stenotrophomonas maltophilia CUN 3998-00
Bacillus subtilis 168 = test system: Bacillus subtilis 168
[13] = test system: Candida glabrata CG196/98IDE
Candida krusei CK802/97 = test system: Candida krusei CK802/97
Escherichia coli B = test system: Escherichia coli B
Staphylococcus aureus = test system: Staphylococcus aureus
[14] = test system: Bacillus cereus ATCC 11778
[15] = test system: Bacillus subtilis CCT 2471
Bacillus thuringiensis = test system: Bacillus thuringiensis
[16] = test system: Candida albicans ATCC 18804
[17] = test system: Escherichia coli CCT 1371
[18] = test system: Klebsiella aerogenes ATCC 13048
Proteus mirabilis = test system: Proteus mirabilis
[19] = test system: Pseudomonas aeruginosa ATCC 15442
[20] = test system: Salmonella enterica subsp. enterica serovar Typhimurium ATCC 14028
[21] = test system: Staphylococcus aureus ATCC 25293
[22] = test system: Staphylococcus aureus ATCC 29213
[23] = test system: Staphylococcus aureus ATCC 6538
[24] = test system: Staphylococcus saprophyticus
[25] = test system: Bacillus subtilis AB91021
[26] = test system: Bacillus thuringiensis AB92037
Escherichia coli AB94012 = test system: Escherichia coli AB94012
[27] = test system: Pseudomonas aeruginosa AB93066
[28] = test system: Staphylococcus aureus AB94004
Staphylococcus sp. = test system: Staphylococcus sp.
[29] = test system: Bacillus subtilis ATCC 6633
[30] = test system: Klebsiella pneumoniae ATCC 10031
[31] = test system: Micrococcus luteus ATCC 10240
[32] = test system: Shigella dysenteriae ATCC 9752
[33] = test system: Staphylococcus aureus ATCC 6538P
[34] = test system: Staphylococcus aureus TK784
[35] = test system: Staphylococcus epidermidis ATCC 12228

MIC (Escherichia coli E423-17): 5.66 µM and 4 µM
MIC [1]: ≥ 97.7 µM
MIC [2]: 48.9 µM and 97.7 µM
MIC (Pseudomonas aeruginosa): 48.9 µM and 97.7 µM
MIC [3]: 4 µM (≈ 8.12 µg/mL)
Compound: CC[C@H](C)[C@H](NC(=O)[C@H](CCCNC(=N)N)NC(=O)[C@H](CCC(N)=O)NC(=O)[C@@H](NC(=O)[C@@H](NC(=O)[C@H](CCCNC(=N)N)NC(=O)[C@H](CCCCN)NC(=O)[C@@H](N)Cc1ccccc1)[C@@H](C)CC)C(C)C)C(=O)N[C@@H](CCCCN)C(=O)N[C@@H](CC(=O)O)C(=O)N[C@@H](Cc1ccccc1)C(=O)N[C@@H](CC(C)C)C(=O)N[C@@H](CCCNC(=N)N)C(=O)N[C@@H](CC(N)=O)C(=O)N[C@@H](CC(C)C)C(=O)N[C@H](C=O)C(C)C [FKRIVQRIKDFLRNLV]

MIC [14]: ≥ 68.2 µM
MIC [15]: 6.8 µM (≈ 9.97 µg/mL)
MIC (Bacillus thuringiensis): 17.1 µM (≈ 25.1 µg/mL)
MIC [16]: 12.5 µM (≈ 18.3 µg/mL)
MIC [17]: 3.4 µM (≈ 4.98 µg/mL)
MIC [18]: ≥ 68.2 µM
MIC (Proteus mirabilis): ≥ 150 µM
MIC [19]: ≥ 150 µM
MIC [7]: 68.3 µM (≈ 100 µg/mL)
MIC [20]: 68.2 µM (≈ 100 µg/mL)
MIC [21]: 0.7 µM (≈ 1.03 µg/mL)
MIC [22]: 34.1 µM (≈ 50 µg/mL)
MIC [23]: 3.4 µM (≈ 4.98 µg/mL)
MIC [24]: 0.7 µM (≈ 1.03 µg/mL)
Compound: CC[C@H](C)[C@H](N)C(=O)N[C@@H](Cc1ccccc1)C(=O)NCC(=O)N[C@@H](C)C(=O)N[C@H](C(=O)N[C@@H](Cc1c[nH]c2ccccc12)C(=O)N[C@@H](CC(N)=O)C(=O)NCC(=O)N[C@H](C(=O)N[C@@H](CCCCN)C(=O)N[C@@H](CO)C(=O)N[C@@H](CC(C)C)C(=O)N[C@@H](Cc1ccccc1)C(=O)O)[C@@H](C)CC)[C@@H](C)CC [IFGAIWNGIKSLF]

MIC [25]: 28.9 µM (≈ 50 µg/mL)
MIC [26]: 14.4 µM (≈ 25 µg/mL)
MIC (Escherichia coli AB94012): ≥ 57.7 µM
MIC [27]: ≥ 57.7 µM
MIC [28]: 14.4 µM (≈ 25 µg/mL)
MIC (Staphylococcus sp.): 14.4 µM (≈ 25 µg/mL)
Compound: CC[C@H](C)[C@H](NC(=O)[C@H](CC(C)C)NC(=O)[C@H](CO)NC(=O)[C@@H]1CCCN1C(=O)[C@@H](NC(=O)[C@H](CC(C)C)NC(=O)CNC(=O)[C@H](Cc1ccccc1)NC(=O)[C@@H](N)CC(C)C)[C@@H](C)CC)C(=O)NCC(=O)NCC(=O)N[C@@H](CC(C)C)C(=O)N[C@H](C(=O)N[C@@H](CO)C(=O)N[C@@H](C)C(=O)N[C@@H](Cc1ccccc1)C(=O)N[C@@H](CCCCN)C(N)=O)C(C)C [LFGLIPSLIGGLVSAFK]

MIC [29]: 1.42 µM (≈ 2 µg/mL)
MIC [6]: 2.84 µM (≈ 4 µg/mL)
MIC [30]: 2.84 µM (≈ 4 µg/mL)
MIC [31]: 2.84 µM (≈ 4 µg/mL)
MIC [7]: 2.84 µM (≈ 4 µg/mL)
MIC [20]: 2.84 µM (≈ 4 µg/mL)
MIC [32]: 1.42 µM (≈ 2 µg/mL)
MIC [33]: 1.42 µM (≈ 2 µg/mL)
MIC [34]: 11.3 µM (≈ 16 µg/mL)
MIC [35]: 1.42 µM (≈ 2 µg/mL)
Compound: CC(C)C[C@H](NC(=O)[C@H](CC(C)C)NC(=O)[C@H](CCCCN)NC(=O)[C@H](CCCCN)NC(=O)[C@H](CC(C)C)NC(=O)[C@H](CC(C)C)NC(=O)[C@H](CCCCN)NC(=O)[C@H](CCCCN)NC(=O)[C@@H](N)CC(C)C)C(=O)N[C@@H](CCCCN)C(=O)N[C@@H](Cc1c[nH]c2ccccc12)C(N)=O [LKKLLKKLLKW]

The next lines start with the compound.

Compound: NCCCC[C@H](NC(=O)CNC(=O)[C@H](CCCCN)NC(=O)[C@H](Cc1ccccc1)NC(=O)[C@H](CCCCN)NC(=O)[C@H](Cc1c[nH]c2ccccc12)NC(=O)[C@H](CCCN=C(N)N)NC(=O)[C@H](Cc1ccccc1)NC(=O)[C@H](CCCN=C(N)N)NC(=O)[C@H](CCCN=C(N)N)NC(=O)[C@H](Cc1ccc(O)cc1)NC(=O)[C@H](CCCCN)NC(=O)[C@H](CCCCN)NC(=O)[C@H](CS)NC(=O)CN)C(=O)N[C@@H](Cc1ccccc1)C(=O)N[C@@H](Cc1c[nH]c2ccccc12)C(=O)N[C@@H](Cc1ccccc1)C(=O)N[C@@H](Cc1c[nH]c2ccccc12)C(N)=O [GCKKYRRFRWKFKGKFWFW]
MIC [4]: 24.1 µM (≈ 64 µg/mL)
MIC [5]: 24.1 µM (≈ 64 µg/mL)
MIC [6]: 24.1 µM (≈ 64 µg/mL)
MIC [7]: 24.1 µM (≈ 64 µg/mL)
MIC [8]: ≥ 48.2 µM
MIC [9]: 24.1 µM (≈ 64 µg/mL)
MIC [10]: 12.1 µM (≈ 32 µg/mL)
MIC [11]: 24.1 µM (≈ 64 µg/mL)
MIC [12]: ≥ 48.2 µM

Compound: CC[C@H](C)[C@H](NC(=O)[C@H](CC(C)C)NC(=O)[C@H](CCCCN)NC(=O)CNC(=O)[C@H](CC(C)C)NC(=O)[C@@H](NC(=O)[C@H](CCCCN)NC(=O)[C@H](CCCCN)NC(=O)[C@H](Cc1c[nH]c2ccccc12)NC(=O)[C@H](CCSC)NC(=O)CN)[C@@H](C)CC)C(=O)N[C@@H](CCCN=C(N)N)C(N)=O [GMWKKILGKLIR]
MIC (Bacillus subtilis 168): 0.8 µM (≈ 1.15 µg/mL)
MIC [13]: ≥ 87 µM
MIC (Candida krusei CK802/97): 28 µM and 13 µM
MIC (Escherichia coli B): 2.3 µM (≈ 3.32 µg/mL)
MIC (Pseudomonas aeruginosa): 13.1 µM (≈ 18.9 µg/mL)
MIC (Staphylococcus aureus): 15 µM (≈ 21.6 µg/mL)

Reference: DBAASP
